In data set [1] the target is T1, Estrogen receptor beta (Homo sapiens, UniProt Q92731).
Description: Agonist activity at human recombinant ERbeta expressed in HEK293 cells by alkaline phosphatase reporter gene transactivation assay
Data set [2] deals with T2, Estrogen receptor (Homo sapiens, UniProt P03372).
T2 sequence (P03372 whole entry): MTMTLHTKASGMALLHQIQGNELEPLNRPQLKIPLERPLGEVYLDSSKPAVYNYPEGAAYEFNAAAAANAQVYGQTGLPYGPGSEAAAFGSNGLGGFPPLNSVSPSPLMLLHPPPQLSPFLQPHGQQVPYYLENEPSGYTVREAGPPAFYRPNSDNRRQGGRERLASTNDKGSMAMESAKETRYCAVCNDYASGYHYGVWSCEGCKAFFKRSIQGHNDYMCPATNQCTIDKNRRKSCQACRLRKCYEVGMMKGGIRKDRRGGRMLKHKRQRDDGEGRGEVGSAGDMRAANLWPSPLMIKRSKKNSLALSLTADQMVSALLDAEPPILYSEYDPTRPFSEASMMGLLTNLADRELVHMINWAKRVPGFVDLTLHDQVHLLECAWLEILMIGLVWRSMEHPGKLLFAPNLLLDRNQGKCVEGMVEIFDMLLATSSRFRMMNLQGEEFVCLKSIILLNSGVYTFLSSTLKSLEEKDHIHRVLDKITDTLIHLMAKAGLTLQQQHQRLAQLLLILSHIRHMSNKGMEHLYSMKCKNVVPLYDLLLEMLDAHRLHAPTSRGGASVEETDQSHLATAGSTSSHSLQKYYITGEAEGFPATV
Description: Agonist activity at human recombinant ERalpha expressed in HEK293 cells by alkaline phosphatase reporter gene transactivation assay

Data set [3] deals with T2, Estrogen receptor. The source holds these as a separate data set.
Description: Binding affinity to human recombinant ERalpha by scintillation proximity assay
The target of data set [4] is T1, Estrogen receptor beta. The source holds these as a separate data set.
Description: Binding affinity to human recombinant ERbeta by scintillation proximity assay
Data set [5] can be described thus: Plasma clearance in Sprague-Dawley rat at 1 mg/kg, iv and 2 mg/kg, po. The format is ADME, organism-based.
A short description of data set [6]: Bioavailability in Sprague-Dawley rat at 1 mg/kg, iv and 2 mg/kg, po. The format is ADME, organism-based. Conditions: in vivo.
Data set [7] is described as follows: Half life in Sprague-Dawley rat at 1 mg/kg, iv and 2 mg/kg, po. The format is ADME, organism-based. The note with it: in vivo.
Data set [8] in a line: AUC in Sprague-Dawley rat at 1 mg/kg, iv. The format is ADME, organism-based. Details: dose 1 mg/kg, route intravenous. Conditions: plasma.

T1 sequence (Q92731 whole entry): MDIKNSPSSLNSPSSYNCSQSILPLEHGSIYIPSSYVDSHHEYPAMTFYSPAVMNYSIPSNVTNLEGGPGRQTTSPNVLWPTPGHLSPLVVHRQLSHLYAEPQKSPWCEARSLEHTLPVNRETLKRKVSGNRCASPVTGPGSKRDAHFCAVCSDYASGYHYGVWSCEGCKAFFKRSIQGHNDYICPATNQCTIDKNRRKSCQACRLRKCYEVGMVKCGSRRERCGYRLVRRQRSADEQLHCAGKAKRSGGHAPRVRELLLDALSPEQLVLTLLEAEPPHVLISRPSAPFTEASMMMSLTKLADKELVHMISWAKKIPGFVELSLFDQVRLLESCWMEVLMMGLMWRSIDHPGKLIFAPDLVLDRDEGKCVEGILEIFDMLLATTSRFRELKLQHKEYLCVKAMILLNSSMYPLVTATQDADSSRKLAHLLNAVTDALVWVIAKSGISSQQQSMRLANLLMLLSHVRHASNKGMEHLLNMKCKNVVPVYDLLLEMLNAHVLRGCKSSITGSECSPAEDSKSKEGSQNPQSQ

By EC50 is commonly meant the concentration giving half of the maximal effect. Read a low EC50 as an effect from little substance. For orientation: IC50 means the concentration at which inhibition is half-maximal. Read a high IC50 as a need for much substance. As to `CCCC[C@@]12CCC(=O)C(C(F)(F)F)=C1c1ccc3[nH]nnc3c1C2`, the EC50 stood at 2.3 nM at Estrogen receptor beta [1] and 169 nM at Estrogen receptor [2]. Besides, the IC50 was found to be 896 nM against Estrogen receptor [3] and 3.2 nM against Estrogen receptor beta [4].
For `CCC1=C2c3ccc4[nH]nnc4c3C[C@@]2(CC)CCC1=O`, the IC50 is more than 10000 nM against Estrogen receptor [3] and 1520 nM against Estrogen receptor beta [4].
On to `CCCC12CCC(=O)C(CC)=C1c1ccc3[nH]nnc3c1C2` (stereo not given), for which the 50% effective concentration (EC50) worked out at 7.7 nM at Estrogen receptor beta [1] and 120 nM on Estrogen receptor [2]. Also, the IC50 at Estrogen receptor [3] is 612 nM; on Estrogen receptor beta [4] it was 18 nM.
Usually bioavailability stands for the share of a dose that reaches the circulation, judged against a reference dose that is usually intravenous. A lower bioavailability goes with poor availability. In general, half-life refers to how long it takes for the measured level to halve. Low values mean rapid decline, high ones slow decline. What is called AUC is concentration integrated over time. As to `CCCC[C@@]12CCC(=O)C(CC)=C1c1ccc3nn[nH]c3c1C2`, the clearance in data set [5] amounted to 62 mL/min/kg. In data set [6], this compound showed a bioavailability of 28%. Further, the EC50 stood at 0.4 nM at Estrogen receptor beta [1] and 30 nM at Estrogen receptor [2]. The half-life in data set [7] was 0.4 h. Further, the IC50 against Estrogen receptor [3] was 220 nM; at Estrogen receptor beta [4], 5.1 nM. This compound also had an AUC in data set [8] of 0.9 µM·h.
Consider `CCCC[C@@]12CCC(=O)C(Br)=C1c1ccc3[nH]nnc3c1C2`, for which the clearance in data set [5] was 24.4 mL/min/kg. Moreover, the bioavailability in data set [6] was determined as 36%. The values for the EC50 at Estrogen receptor beta [1] and on Estrogen receptor [2] were 5.5 nM and 519 nM, respectively. This compound had a half-life in data set [7] of 2.9 h. Also, the figures for the IC50 against Estrogen receptor [3] and against Estrogen receptor beta [4] were 1910 nM and 5.7 nM, respectively. In addition, the AUC in data set [8] turned out to be 1.9 µM·h.
As to `CCC12CCC(=O)C(c3ccc(O)cc3)=C1c1ccc3[nH]nnc3c1C2` (stereo not given), the values for the EC50 at Estrogen receptor beta [1] and at Estrogen receptor [2] were 4.3 nM and 901 nM, respectively. The figures for the 50% inhibitory concentration (IC50) at Estrogen receptor [3] and against Estrogen receptor beta [4] were 81 nM and 11 nM, respectively.
The like results for `CCC1=C2c3ccc4[nH]nnc4c3CC2(CC)CCC1=O` (stereo not given) were, in that order, 7.3 nM, 460 nM, 1320 nM and 18 nM.
The corresponding values for `CCC12CCC(=O)C=C1c1ccc3nn[nH]c3c1C2` (stereo not given) are 475 nM, 1230 nM, more than 10000 nM and 3040 nM.
The corresponding values for `CCCC[C@@]12CCC(=O)C(c3cccs3)=C1c1ccc3nn[nH]c3c1C2` are 0.96 nM, 79 nM, 34 nM and 2.3 nM.
`CCC12CCC(=O)C(C)=C1c1ccc3[nH]nnc3c1C2` (stereo not given): the figures for the EC50 at Estrogen receptor beta [1] and at Estrogen receptor [2] were 20 nM and 671 nM, respectively. For the same compound, the IC50 at Estrogen receptor [3] amounted to 1900 nM; against Estrogen receptor beta [4] it was 24 nM.
Regarding `CC[C@@]12CCC(=O)C(C(F)(F)F)=C1c1ccc3nn[nH]c3c1C2`, in data set [5], the clearance worked out at 108 mL/min/kg. In data set [6], the bioavailability was determined as 59%. In addition, the values for the EC50 at Estrogen receptor beta [1] and on Estrogen receptor [2] were 4.9 nM and 241 nM, respectively. Moreover, the half-life in data set [7] was 0.4 h. The IC50 against Estrogen receptor [3] came out at 1680 nM; against Estrogen receptor beta [4], 11 nM. Also, the AUC in data set [8] is 0.6 µM·h.
Turning to `CCCCC12CCC(=O)C(CC)=C1c1ccc3[nH]nnc3c1C2` (racemic), in data set [5], the clearance amounted to 31.6 mL/min/kg. The compound further came in with a bioavailability in data set [6] of 85%. In data set [7], this compound gave a half-life of 2.9 h. This compound displayed an AUC in data set [8] of 1.7 µM·h.
On to `CCCC12CCC(=O)C(Br)=C1c1ccc3nn[nH]c3c1C2` (stereo not given), for which the EC50 is 18 nM at Estrogen receptor beta [1] and 561 nM at Estrogen receptor [2]. Besides, the figures for the IC50 on Estrogen receptor [3] and against Estrogen receptor beta [4] were 3300 nM and 43 nM, respectively.
The corresponding values for `CCCC1=C2c3ccc4nn[nH]c4c3CC2(CC)CCC1=O` (stereo not given) are 14 nM, 794 nM, 352 nM and 11 nM.
On to `CCC12CCC(=O)C(Br)=C1c1ccc3nn[nH]c3c1C2` (stereo not given), for which the values for the EC50 at Estrogen receptor beta [1] and on Estrogen receptor [2] were 46 nM and 1270 nM, respectively. Moreover, the IC50 came to 5170 nM at Estrogen receptor [3] and 60 nM on Estrogen receptor beta [4].
With `CCCCC1=C2c3ccc4[nH]nnc4c3CC2(CC)CCC1=O` (stereo not given), the values for the EC50 at Estrogen receptor beta [1] and on Estrogen receptor [2] were 60 nM and 681 nM, respectively. The IC50 stood at 1130 nM on Estrogen receptor [3] and 43 nM on Estrogen receptor beta [4].
Compound `CCCCC12CCC(=O)C(Br)=C1c1ccc3nn[nH]c3c1C2` (racemic) gave a clearance in data set [5] of 102 mL/min/kg. This compound also yielded a bioavailability in data set [6] of 0%. The results for the EC50 on Estrogen receptor beta [1] and at Estrogen receptor [2] were 4 nM and 94 nM, respectively. Moreover, the half-life in data set [7] is 1.5 h. Further, the IC50 against Estrogen receptor [3] was determined as 141 nM; against Estrogen receptor beta [4] it was 1.8 nM. Besides, the AUC in data set [8] is 0.5 µM·h.
For `CCCCC12CCC(=O)C(CCC)=C1c1ccc3[nH]nnc3c1C2` (stereo not given), the EC50 is 96 nM on Estrogen receptor beta [1] and 1180 nM at Estrogen receptor [2]. Besides, the IC50 at Estrogen receptor [3] amounted to 1250 nM; against Estrogen receptor beta [4], 58 nM.
`CCC1=C2c3ccc4[nH]nnc4c3C[C@]2(CC)CCC1=O` returned a clearance in data set [5] of 64.8 mL/min/kg. In data set [6], this compound had a bioavailability of 70%. Besides, the EC50 turned out to be 5.8 nM on Estrogen receptor beta [1] and 140 nM on Estrogen receptor [2]. The compound further showed a half-life in data set [7] of 0.3 h. For the same compound, the IC50 on Estrogen receptor [3] was 647 nM; against Estrogen receptor beta [4], 5.7 nM. Further, the AUC in data set [8] is 1 µM·h.
As for `CCCC1=C2c3ccc4[nH]nnc4c3CC2(CCC)CCC1=O` (stereo not given), the IC50 worked out at 344 nM against Estrogen receptor [3] and 23 nM on Estrogen receptor beta [4].
For `CCCC12CCC(=O)C(C)=C1c1ccc3nn[nH]c3c1C2` (stereo not given), the EC50 at Estrogen receptor beta [1] came out at 17 nM; on Estrogen receptor [2], 449 nM. Moreover, the values for the IC50 against Estrogen receptor [3] and against Estrogen receptor beta [4] were 6170 nM and 81 nM, respectively.
Consider `CCCCC12CCC(=O)C(c3ccco3)=C1c1ccc3[nH]nnc3c1C2` (stereo not given), for which the EC50 on Estrogen receptor beta [1] is 6.5 nM; at Estrogen receptor [2], 870 nM. The figures for the IC50 against Estrogen receptor [3] and at Estrogen receptor beta [4] were 1120 nM and 7.4 nM, respectively.
On to `CCCC[C@]12CCC(=O)C(CC)=C1c1ccc3[nH]nnc3c1C2`, for which the clearance in data set [5] worked out at 18.3 mL/min/kg. The same compound displayed a bioavailability in data set [6] of 99%. For the same compound, the EC50 at Estrogen receptor beta [1] came out at 28 nM; at Estrogen receptor [2] it was 391 nM. Besides, the half-life in data set [7] was 1.2 h. Moreover, the IC50 worked out at 4750 nM against Estrogen receptor [3] and 242 nM against Estrogen receptor beta [4]. The compound also had an AUC in data set [8] of 3 µM·h.
On to `CCCCC12CCC(=O)C(C)=C1c1ccc3[nH]nnc3c1C2` (stereo not given), for which the midpoint of the response at Estrogen receptor beta [1], the EC50, lay at 20 nM. In addition, the IC50 on Estrogen receptor [3] worked out at 5980 nM; on Estrogen receptor beta [4] it was 27 nM.
